In series [1] the test system is rat. The note with it: Developmental neurotoxicity study; sprague dawley; Injection; Intraperitoneal; dose end: 74 PND; group: cannot be grouped; reproductive / reproductive performance / aborted / aborted + developmental / offspring survival late / [other] / [other] + systemic / in ….
The subject of series [2] is mouse. The note with it: Subchronic oral toxicity in rodents, Feed, dose end: 90 day, group: systemic.
In series [3] the test system is mouse. The note with it: Carcinogenicity; other; Oral; Feed; dose end: 104 week; group: systemic; systemic / pathology microscopic / liver / vacuolization.
Series [4] deals with rat. The note with it: Combined chronic toxicity/carcinogenicity, sprague dawley, Oral, Feed, dose end: 105 week, group: systemic.
The test system of series [5] is rat. The note with it: Prenatal developmental toxicity study, other, Oral, Gavage/Intubation, dose end: 15 GD.
Series [6] has as its system rat. The note with it: Subchronic oral toxicity in rodents, Feed, dose end: 90 day, group: systemic.
In series [7] the test system is dog. The note with it: Chronic toxicity, beagle, Oral, Feed, dose end: 6 month, group: systemic.
Series [8] concerns dog. The note with it: Subchronic oral toxicity in nonrodent, beagle, Feed, dose end: 6 month, group: systemic, systemic / clinical chemistry / alkaline phosphatase (alp/alk) / alkaline phosphatase (alp/alk) + systemic / organ weight / liver / absolute….
For series [9], the system named is rat. The note with it: Subchronic oral toxicity in rodents, sprague dawley, Feed, dose end: 13 week, group: systemic, systemic / in life observation / body weight / body weight + systemic / in life observation / body weight / body weight gain + systemic / in….
Series [10] has as its system rat. The note with it: Subchronic oral toxicity in rodents, sprague dawley, Feed, dose end: 3 month, group: systemic, systemic / in life observation / body weight / body weight + systemic / in life observation / body weight / body weight gain.
Series [11] concerns dog. The note with it: Subchronic oral toxicity in nonrodent, beagle, Feed, dose end: 16 week, group: systemic, systemic / in life observation / body weight / body weight.
Series [12] relates to rat. The note with it: Multigenerational reproductive toxicity study, sprague dawley, Oral, Feed, dose end: 2 generation.
In series [13] the test system is mouse. The note with it: Prenatal developmental toxicity study; cd1; Oral; Gavage/Intubation; dose end: 17 GD; group: developmental; systemic / in life observation / clinical signs / aggressive behavior + systemic / organ weight / testes / absolute.
Setting [14] is: systemic / organ weight / liver / absolute + systemic / organ weight / liver / relative to body weight.
The mark [15] stands for this setting: systemic / organ weight / liver / absolute + systemic / organ weight / liver / relative to body weight + systemic / clinical chemistry / ….
Where [16] appears, read: systemic / pathology microscopic / liver / vacuolization.
[17] abbreviates: systemic / pathology microscopic / liver / vacuolization + systemic / organ weight / liver / absolute + systemic / organ weight / liver / ….
The mark [18] stands for this setting: group: developmental, developmental / developmental malformation / bone / absent + developmental / developmental malformation / bone / incomplete ossification + ….
Setting [19] is: group: maternal, systemic / in life observation / clinical signs / convulsions + systemic / in life observation / clinical signs / fur (altered appearance….
[20] abbreviates: systemic / organ weight / liver / absolute + systemic / organ weight / liver / relative to body weight + systemic / pathology microscopic / ….
Where [21] appears, read: systemic / clinical chemistry / alkaline phosphatase (alp/alk) / alkaline phosphatase (alp/alk) + systemic / hematology / erythrocyte (rbc) ….
Setting [22] is: group: offspring, systemic / in life observation / clinical signs / [other].
Where [23] appears, read: group: parental, systemic / organ weight / liver / relative to body weight.

The results in this text go back to EPA's ToxRefDB 2.

Usually LOAEL stands for the lowest tested level that showed an adverse finding. For orientation: NOAEL means the highest dose or exposure tested at which no adverse effect was seen.

Take `NC(=O)NO` [Hydroxyurea]: in the series with rat [1], the LEL is 2000 mg/kg/day, the LOAEL was over 2000 mg/kg/day, the NEL is under 2000 mg/kg/day and the no observed adverse effect level (NOAEL) is at least 2000 mg/kg/day.

In the case of `COCC(=O)N(c1c(C)cccc1C)C(C)C(=O)OC` (stereo not given) [Metalaxyl], the LEL in the series on mouse [2] (setting [14]) is 188 mg/kg/day; in the series on mouse [3] it was 129 mg/kg/day; in the series on rat [4] (setting [16]), 1.88 mg/kg/day; with rat [5] (setting [18]), 400 mg/kg/day; in the series on rat [5] (setting [19]), 250 mg/kg/day; in the series with rat [6] (setting [14]), 2.5 mg/kg/day. The LEL in the series with dog [7] (setting [21]) and in the series on dog [8] was 30.6 mg/kg/day each time. Further, the NEL is under 188 mg/kg/day with mouse [2] (setting [14]); 24.9 mg/kg/day with mouse [3]; under 1.88 mg/kg/day with rat [4] (setting [16]); 250 mg/kg/day with rat [5] (setting [18]); 50 mg/kg/day with rat [5] (setting [19]); under 2.5 mg/kg/day in the series with rat [6] (setting [14]). The NEL in the series with dog [7] (setting [21]) and in the series with dog [8] was 7.8 mg/kg/day in each case. The LOAEL with mouse [2] (setting [15]) was over 750 mg/kg/day; with mouse [3] it was 129 mg/kg/day; in the series with rat [4] (setting [17]), 46.6 mg/kg/day; in the series on rat [5] (setting [18]), 400 mg/kg/day; with rat [5] (setting [19]) it was 250 mg/kg/day; with rat [6] (setting [20]) it was over 62.5 mg/kg/day. The LOAEL in the series on dog [7] (systemic / clinical chemistry / alkaline phosphatase (alp/alk) / alkaline phosphatase (alp/alk)) and with dog [8] was 30.6 mg/kg/day throughout. Moreover, the NOAEL with mouse [2] (setting [15]) was at least 750 mg/kg/day; in the series with mouse [3], 24.9 mg/kg/day; with rat [4] (setting [17]), 9.43 mg/kg/day; in the series with rat [5] (setting [18]) it was 250 mg/kg/day; with rat [5] (setting [19]) it was 50 mg/kg/day; in the series on rat [6] (setting [20]) it was at least 62.5 mg/kg/day. Further, the NOAEL in the series with dog [7] (setting [21]) and in the series with dog [8] was 7.8 mg/kg/day throughout.

As for `CCc1cccc(C)c1N(C(=O)CCl)[C@@H](C)COC` [S-Metolachlor], in the series on rat [9], the LEL was determined as 150 mg/kg/day, the LOAEL is 150 mg/kg/day, the NEL stood at 15 mg/kg/day and the NOAEL came out at 15 mg/kg/day. In addition, in the series on rat [10], the LEL stood at 259 mg/kg/day, the LOAEL was found to be 259 mg/kg/day, the NEL came to 23.4 mg/kg/day and the NOAEL worked out at 23.4 mg/kg/day. Further, in the series on dog [11], the LEL is 31.1 mg/kg/day, the LOAEL was over 62 mg/kg/day, the NEL amounted to 15.1 mg/kg/day and the NOAEL was at least 62 mg/kg/day.

In the series with rat [12] (setting [22]), `Clc1ccc(C(c2ccccc2Cl)C(Cl)(Cl)Cl)cc1` (stereo not given) [o,p'-DDT] had an LEL of 10 mg/kg/day, an LOAEL of over 10 mg/kg/day, an NEL of 1 mg/kg/day and an NOAEL of at least 10 mg/kg/day. Moreover, in the series with rat [12] (setting [23]), the LEL was 10 mg/kg/day, the LOAEL is over 10 mg/kg/day, the NEL amounted to 1 mg/kg/day and the NOAEL is at least 10 mg/kg/day. Moreover, in the series with mouse [13], the LEL came to 18 mg/kg/day, the LOAEL is over 180 mg/kg/day, the NEL is under 18 mg/kg/day and the no observed adverse effect level (NOAEL) was at least 180 mg/kg/day.
